Assay results taken from ChEMBL document CHEMBL1132796, “Multistep solution-phase parallel synthesis of spiperone analogues” (Bioorg Med Chem Lett, 2000).

Tests used:
[1] = biological target: T1, 5-hydroxytryptamine receptor 2A (Homo sapiens, UniProt P28223); experiment: Compound was evaluated for its inverse agonist activity against 5-hydroxytryptamine 2A receptor; assay type: functional
[2] = biological target: T1, 5-hydroxytryptamine receptor 2A; experiment: Compound was evaluated for its binding against 5-hydroxytryptamine 2A receptor

T1 sequence (P28223 whole entry): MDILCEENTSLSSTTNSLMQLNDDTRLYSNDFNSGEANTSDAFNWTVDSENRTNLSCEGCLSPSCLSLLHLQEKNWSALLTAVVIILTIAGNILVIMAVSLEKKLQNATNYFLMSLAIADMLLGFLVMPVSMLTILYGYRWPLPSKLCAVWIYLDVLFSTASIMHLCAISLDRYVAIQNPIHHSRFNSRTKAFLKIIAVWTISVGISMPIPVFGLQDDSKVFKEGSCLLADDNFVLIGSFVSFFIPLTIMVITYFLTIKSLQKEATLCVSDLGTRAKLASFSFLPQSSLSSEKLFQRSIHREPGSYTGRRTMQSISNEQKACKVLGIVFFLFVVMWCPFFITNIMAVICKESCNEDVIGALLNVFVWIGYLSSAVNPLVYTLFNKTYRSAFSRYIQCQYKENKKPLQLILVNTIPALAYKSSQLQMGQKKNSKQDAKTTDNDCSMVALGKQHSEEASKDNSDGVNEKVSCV

Structure (SMILES): CC(C)NC(=O)N(C1CCCCCCC1)C1CCN(CCCOc2ccc(F)cc2)CC1
- IC50 [1]: 79.4 nM

Structure (SMILES): CCC(=O)N(C1CCCCCCC1)C1CCN(CCCOc2ccc(F)cc2)CC1
- Ki [2]: 20 nM
- IC50 [1]: 12.6 nM
